Drawing on publication PMC7099625, “Exploration of thiaheterocyclic hHDAC6 inhibitors as potential antiplasmodial agents” (Future Medicinal Chemistry, 2017), this text covers IC50 for 40 compounds.

Experiment [1] concerns P. falciparum (Dd2). Nature of the experiment: Antiplasmodial parasite lactate dehydrogenase assay, chloroquine-resistant strain Dd2. The experiment is classed as cell-based, Plasmodium falciparum. To be noted: read-out: IC50 Dd2. On the procedure:
(§1) Continuous in vitro cultures of asexual erythrocyte stages of P. falciparum were maintained using a modified method of Trager and Jensen. Quantitative assessment of antiplasmodial activity in vitro was determined via the parasite lactate dehydrogenase assay using a modified method described by Makler. The test samples were prepared to a 20 mg/ml stock solution in 100% DMSO. Stock solutions were stored at -20°C. Further dilutions were prepared in complete medium on the day of the experiment. CQ and artesunate were used as the reference drugs. A full dose–response was performed to determine the concentration inhibiting 50% of parasite growth (IC50 value). Test samples were tested at a starting concentration of 100 μg/ml, which was then serially diluted twofold in complete medium to give 10 concentrations; with the lowest concentration being 0.2 μg/ml. The same dilution technique was used for all samples. References were tested at a starting concentration of 1 μg/ml.
(§2) The antiplasmodial activity of this set of structures was first determined through a modified parasite lactate dehydrogenase assay against a CQ-sensitive (CQS) strain of P. falciparum (NF54). […] Finally, a selectivity index (SI = IC50 CHO/IC50 NF54) and a resistance index (RI = IC50 Dd2/IC50 NF54) was calculated to be able to easily compare the therapeutic window (active concentration vs toxic concentration) and sensitivity toward resistance developing.

In experiment [2] the test system is P. falciparum (NF54). Briefly: Antiplasmodial parasite lactate dehydrogenase assay, chloroquine-sensitive strain NF54. It counts as cell-based, Plasmodium falciparum. The settings on record: read-out: IC50 NF54. On the procedure:
as §1, §2

Experiment [3] relates to hHDAC6. Further details: method as in PMID 23538448, PMID 25994553, PMID 26822143, PMID 27717044. The settings on record: hHDAC6 inhibition, previously described; read-out: IC50 HDAC6; cited from earlier work.
For experiment [4], the system named is Chinese Hamster Ovary (CHO) cells. Briefly: MTT in vitro cytotoxicity assay. It counts as cell-based. The settings on record: triplicate on one occasion. On the procedure: Test samples were screened for in vitro cytotoxicity against a mammalian cell-line, Chinese Hamster Ovary (CHO), using the 3-(4,5-dimethylthiazol-2-yl)-2,5-diphenyltetrazoliumbromide (MTT)-assay. The MTT-assay is used as a colorimetric assay for cellular growth and survival, and compares well with other available assays. The tetrazolium salt MTT was used to measure all growth and chemosensitivity. The test samples were tested in triplicate on one occasion. The same stock solutions prepared for antiplasmodial evaluation were used for cytotoxicity testing. Test compounds were stored at -20°C until use. Dilutions were prepared on the day of the experiment. Emetine was used as the reference drug in all experiments. The starting concentration was 100 μg/ml, which was serially diluted in complete medium with tenfold dilutions to give six concentrations, the lowest being 0.001 μg/ml. […] The IC50 values were obtained from full dose–response curves, using a nonlinear dose–response curve fitting analysis via GraphPad Prism v.4 software. […]

The mark [5] stands for this setting: chloroquine-resistant (CQR) P. falciparum strain Dd2, asexual erythrocyte stages, pLDH assay.
Setting [6] is: chloroquine-sensitive (CQS) P. falciparum strain NF54, asexual erythrocyte stages, pLDH assay.

Structures are written as SMILES. pIC50: −log10 of the molar value. Like-named read-outs stand apart in the source and are kept apart here.

Turning to `O=C(NO)c1ccc(Cn2c3c(c4ccccc42)C[S+]([O-])CC3)cc1` (racemic) [Compound 1j], the pIC50 in experiment [1] (setting [5]) is 5.89; in experiment [2] (setting [6]), 5.89; in experiment [3] it was 7.85; in experiment [4] it was under 3.55.
As to `O=C(NO)c1ccc(Cn2c3c(c4cc(F)ccc42)C[S+]([O-])CC3)cc1` (racemic) [Compound 1k], the pIC50 was 6.10 in experiment [1] (setting [5]) and under 3.57 in experiment [4].
With `O=C(NO)c1ccc(CN2c3cc(Cl)ccc3SCC3CCCC32)cc1` (racemic) [Compound 3b], the pIC50 in experiment [1] (setting [5]) is under 5.61; in experiment [2] (setting [6]), under 5.61; in experiment [3], 6.19; in experiment [4] it was 4.38.
Turning to `O=C(NO)c1ccc(CN2c3cc(C(F)(F)F)ccc3SCC3CCCC32)cc1` (racemic) [Compound 3c], the negative-log IC50 (pIC50) in experiment [1] (setting [5]) was under 5.64; in experiment [2] (setting [6]) it was 5.82; in experiment [3], 6.70; in experiment [4], 4.21.
As to `O=C(NO)c1ccc(CN2c3cc(Cl)ccc3S(=O)(=O)CC3CCCC32)cc1` (racemic) [Compound 3e], the figures for the pIC50 in experiment [3] and in experiment [4] were 7.17 and 4.45, respectively.
As for `O=C(NO)c1ccc(CN2c3cc(C(F)(F)F)ccc3S(=O)(=O)CC3CCCC32)cc1` (racemic) [Compound 3f], the negative-log IC50 (pIC50) in experiment [1] (setting [5]) was 6.15; in experiment [2] (setting [6]), 6.06; in experiment [4], 4.25.
Turning to `O=C(NO)c1ccc(CN2c3cc(Cl)ccc3SCC3CCCC32)cc1` (racemic) [Compound 3i], the negative logarithm of the IC50 (pIC50) is 5.80 in experiment [1] (setting [5]), under 5.61 in experiment [2] (setting [6]), 6.80 in experiment [3] and 4.29 in experiment [4].
As to `C[C@H]1[C@H](OC(=O)CCC(=O)O)O[C@@H]2O[C@@]3(C)CC[C@H]4[C@H](C)CC[C@@H]1[C@@]24OO3` [Artesunate, artesunate, reference compound], the negative logarithm of the IC50 (pIC50) in experiment [1] (Plasmodium falciparum, chloroquine-resistant (CQR) P. falciparum strain Dd2, asexual erythrocyte stages, pLDH assay) was 7.80; in experiment [2] (Plasmodium falciparum, chloroquine-sensitive (CQS) P. falciparum strain NF54, asexual erythrocyte stages, pLDH assay) it was over 8.00.
For `CCN(CC)CCCC(C)Nc1ccnc2cc(Cl)ccc12` (stereo not shown) [Chloroquine, chloroquine, reference compound], the negative logarithm of the IC50 (pIC50) in experiment [1] (Plasmodium falciparum, DD2, Erythrocyte) was 6.76; in experiment [2] (Plasmodium falciparum, NF54, Erythrocyte), 8.00.
In the case of `O=C(NO)c1ccc(Cn2c3c(c4ccccc42)CSCC3)cc1` [Compound 1a], the negative-log IC50 (pIC50) in experiment [2] (setting [6]) was 4.43; in experiment [3], 7.82.
For `COc1cc(C(=O)NO)ccc1Cn1c2c(c3ccccc31)CSCC2` [Compound 1b], the pIC50 in experiment [2] (setting [6]) was 4.85.
Turning to `O=C(NO)c1ccc(Cn2c3c(c4cc(F)ccc42)CSCC3)cc1` [Compound 1c], the pIC50 in experiment [1] (setting [5]) is 5.51; in experiment [2] (setting [6]), 5.66; in experiment [3], 7.66; in experiment [4], 3.98.
For the compound `COc1cc(C(=O)NO)ccc1Cn1c2c(c3cc(F)ccc31)CSCC2` [Compound 1d], the pIC50 in experiment [2] (setting [6]) was 4.63.
`O=C(NO)c1ccc(Cn2c3c(c4ccccc42)CS(=O)(=O)CC3)cc1` [Compound 1e]: the negative logarithm of the IC50 (pIC50) was 4.97 in experiment [2] (setting [6]) and 8.70 in experiment [3].
`COc1cc(C(=O)NO)ccc1Cn1c2c(c3ccccc31)CS(=O)(=O)CC2` [Compound 1f]: the negative-log IC50 (pIC50) was 4.68 in experiment [2] (setting [6]) and 5.70 in experiment [3].
As to `O=C(NO)c1ccc(Cn2c3c(c4cc(F)ccc42)CS(=O)(=O)CC3)cc1` [Compound 1g], the pIC50 was 4.80 in experiment [2] (setting [6]) and 8.40 in experiment [3].
As for `COc1cc(C(=O)NO)ccc1Cn1c2c(c3cc(F)ccc31)CS(=O)(=O)CC2` [Compound 1h], the pIC50 is 4.49 in experiment [2] (setting [6]) and 5.89 in experiment [3].
Regarding `O=C(NO)c1ccc(Cn2c3c(c4cc(Br)ccc42)CS(=O)(=O)CC3)cc1` [Compound 1i], the negative logarithm of the IC50 (pIC50) in experiment [4] was 3.96.
In the case of `O=C(NO)c1cccc(Cn2c3c(c4ccccc42)CSCC3)c1` [Compound 1n], the pIC50 is 5.66 in experiment [1] (setting [5]), 5.83 in experiment [2] (setting [6]) and under 3.53 in experiment [4].
The matching figures for `O=C(NO)c1cccc(Cn2c3c(c4cc(F)ccc42)CSCC3)c1` [Compound 1o]: 5.84, 5.88 and 4.32.
Regarding `O=C(NO)c1cccc(Cn2c3c(c4ccccc42)CS(=O)(=O)CC3)c1` [Compound 1p], the pIC50 in experiment [2] (setting [6]) is 5.26.
Regarding `O=C(NO)c1cccc(Cn2c3c(c4cc(F)ccc42)CS(=O)(=O)CC3)c1` [Compound 1q], the pIC50 in experiment [2] (setting [6]) is 5.11.
Same read-out and setting: the value for `O=C(NO)c1cccc(Cn2c3c(c4cc(-c5ccccc5)ccc42)CS(=O)(=O)CC3)c1` [Compound 1r] was 5.09.
Consider `O=C(NO)c1ccc(NCc2csc3ccccc23)cc1` [Compound 2a], for which the negative logarithm of the IC50 (pIC50) in experiment [1] (setting [5]) is 5.67; in experiment [2] (setting [6]), 5.80; in experiment [3] it was 7.85; in experiment [4] it was 4.90.
Consider `O=C(NO)c1ccc(N(Cc2ccccc2)Cc2csc3ccccc23)cc1` [Compound 2b], for which the negative logarithm of the IC50 (pIC50) in experiment [2] (setting [6]) is 4.49.
As to `O=C(NO)c1ccc(NCc2csc3ccc(Br)cc23)cc1` [Compound 2c], the negative logarithm of the IC50 (pIC50) in experiment [1] (setting [5]) is 5.62; in experiment [2] (setting [6]), 5.99; in experiment [3] it was 7.43; in experiment [4] it was 4.51.
For `O=C(NO)c1ccc(N(Cc2ccccc2)Cc2csc3ccc(Br)cc23)cc1` [Compound 2d], in experiment [2] (setting [6]), the pIC50 was 4.75.
In the case of `O=C(NO)c1ccc(NCc2csc3ccc(-c4ccccc4)cc23)cc1` [Compound 2e], the pIC50 in experiment [2] (setting [6]) was 5.29.
Take `O=C(NO)c1ccc(N(Cc2ccccc2)Cc2csc3ccc(-c4ccccc4)cc23)cc1` [Compound 2f]: in experiment [2] (setting [6]), the negative-log IC50 (pIC50) was 5.24.
In the case of `O=C(NO)c1ccc(NCc2csc3cc(Br)ccc23)cc1` [Compound 2g], the pIC50 is 5.80 in experiment [1] (setting [5]), 5.89 in experiment [2] (setting [6]), 7.19 in experiment [3] and 4.34 in experiment [4].
For `O=C(NO)c1ccc(N(Cc2ccccc2)Cc2csc3cc(Br)ccc23)cc1` [Compound 2h], in experiment [2] (setting [6]), the pIC50 was 5.07.
On to `O=C(NO)c1ccc(NCc2csc3cc(-c4ccccc4)ccc23)cc1` [Compound 2i], for which the pIC50 in experiment [1] (setting [5]) was 5.94; in experiment [2] (setting [6]) it was 5.48; in experiment [4] it was 4.51.
Regarding `O=C(NO)c1ccc(N(Cc2ccccc2)Cc2csc3cc(-c4ccccc4)ccc23)cc1` [Compound 2j], the pIC50 in experiment [2] (setting [6]) was 5.30.
The same measure, in the same setting: the value for `Cc1cc(C(=O)NO)ccc1NCc1csc2ccccc12` [Compound 2k] was 4.43.
In the case of `O=C(NO)c1ccc(CN2c3ccccc3SCC3CCCC32)cc1` (stereo not shown) [Compound 3a], the pIC50 in experiment [1] (setting [5]) was under 5.57; in experiment [2] (setting [6]), 5.80; in experiment [3] it was 7.44; in experiment [4], 3.98.
As for `O=C(NO)c1ccc(CN2c3ccccc3S(=O)(=O)CC3CCCC32)cc1` (stereo not shown) [Compound 3d], the results for the pIC50 in experiment [1] (setting [5]) and in experiment [4] were 6.03 and 3.97, respectively.
`O=C(NO)c1ccc(CN2c3ccccc3[S+]([O-])CC3CCCC32)cc1` (stereo not shown) [Compound 3g]: the pIC50 in experiment [1] (setting [5]) is under 5.59; in experiment [2] (setting [6]), 5.90; in experiment [3], 8.22; in experiment [4], 3.76.
Regarding `O=C(NO)c1ccc(CN2c3ccccc3SCC3CCCCC32)cc1` (stereo not shown) [Compound 3h], the pIC50 in experiment [1] (setting [5]) was under 5.58; in experiment [2] (setting [6]), under 5.58; in experiment [3], 7.48; in experiment [4], 4.06.
With `O=C(NO)c1ccc(CN2c3ccccc3SCC3CCCCC32)cc1` (stereo not shown) [Compound 3j], the negative-log IC50 (pIC50) in experiment [1] (setting [5]) was under 5.58; in experiment [2] (setting [6]), under 5.58; in experiment [3] it was 7.04; in experiment [4] it was 4.21.
As for `CC[C@H]1CN2CCc3cc(OC)c(OC)cc3[C@@H]2C[C@@H]1C[C@H]1NCCc2cc(OC)c(OC)cc21` [Emetine, reference compound], in experiment [4] (Cricetulus griseus), the pIC50 is 6.95.

One may read the pIC50 as the IC50 on a negative log10 scale, so that one unit is a factor of ten.
